pIC50: −log10 of the molar value.
Test: Cytotoxicity in human A2058 cells assessed as reduction in cell viability after 72 hrs by cell titer 96 aqueous one assay
Assay type: functional, cell-based
Conditions: A2058, 72 h

With `CC(C)=CCC/C(C)=C/CC/C(C)=C/CCC(C)C(=O)NCCS(=O)(=O)O` (stereo unspecified) the pIC50 was 5.07.

— ChEMBL document CHEMBL3853278, “Metabolomic Profiling Reveals the N-Acyl-Taurine Geodiataurine in Extracts from the Marine Sponge Geodia macandrewii (Bowerbank)” (J Nat Prod, 2016)
